“Also recorded” adds a separate entry of the source.
Assays:
[1] = test system: mES cells; experiment: Ratiometric SAM imaging in mES cells; assay type: cell-based, Mouse; settings: 30 mM cycloleucine, +2i and −2i media, sensor 4-2
[2] = test system: HCT116 cells; experiment: Ratiometric SAM imaging in HCT116 cells; assay type: cell-based; settings: 30 mM cycloleucine, sensor 5-1
Method: The control constitutively fluorescent Squash was not affected by withdrawal of threonine and methionine. Scale bar, 20 μm. […] Overall, low cell-to-cell variation was seen (n=8 cells from three separate experiments). […] The rate of SAM drop was slower than the rate in cells cultured in +2i (n=8 cells from three separate experiments). […] SAM levels were measured at 20 minute time intervals after methionine withdrawal and after methionine (100 μM) addition. Cells indicated with a white arrow start with a very high level of SAM and show a slow drop in SAM levels over time, indicating low SAM utilization. Scale bar, 20 μm. […]
5-1 was used because it has higher dynamic range. […] To test if this also holds in HCT116 cells, Squash-SAM sensor 5-1 was expressed in HCT116 cells and SAM level was monitored after threonine depletion. […] To test this, Squash-SAM sensor 5-1 was expressed in HCT116 cells and SAM levels were monitored for 240 minutes after depleting both threonine and methionine. […] The average cellular ratio of O/G fluorescence was quantified for these cells at 15 minute intervals after cycloleucine (30 mM final) treatment. […]
After placing the plates on a Tokai Hit stage top incubator (37° C. and 5% CO2), live fluorescence images were taken with a Nikon Eclipse Ti-E microscope fitted with a CoolSnap HQ2 CCD camera (Photometrics) through a 40× air objective (NA 0.75). […]

[3] = test system: HEK293T cells; experiment: SAM sensor imaging in HEK293T cells; assay type: cell-based; settings: 30 mM cycloleucine, within 30 minutes
Method: FIG. 4A is a schematic showing the design of the Squash-SAM sensor transducer library. The SAM-III aptamer (top) was fused to Squash (bottom) through a transducer helix (middle). The sensor was selected from a library of randomized transducer sequences generated using the sprouts/clips method. FIG. 4B is a bar graph showing the results of an experiment in which, after three rounds of SELEX, two Squash-SAM sensors, 5-1 and 4-2, were tested for SAM-induced fluorescence. Squash-SAM sensor RNAs (1 μM) were incubated with 10 μM DFHO and 0 or 0.1 mM SAM for 1 hour at 37° C. and then fluorescence was measured (ex. 495 nm; em. 562 nm). Data represent mean values±s.d. for n=3 independent experiments. FIGS. 4C-4D are plots showing the kinetics of fluorescence activation (FIG. 4C) and deactivation (FIG. 4D) of Squash-SAM sensors. Sensor activation was induced by adding 0.1 mM SAM to 1 μM sensor RNAs and 10 μM DFHO at 37° C. Deactivation was measured after removal of SAM by gel filtration. […] SAM binding activates the orange fluorescence by promoting Squash folding and subsequent binding with DFHO. The constitutive green fluorescence of Broccoli-BI is used for normalization, thus eliminating the confounding effect of cell-to-cell variation in sensor expression level, and different fluorescence measurements in thick vs. thin parts of the cell. […] The ratio was measured at 10 minute time intervals. […]

[4] = test system: HEK293T cells; experiment: Cytotoxicity of DFAME, MTT assay after illumination; assay type: cell-based; settings: 10 μM, illuminated for 10 minutes
Method: FIG. 31A is a graph showing the results of an experiment evaluating fluorescence of DFAME when mixed with cells. An important criteria for a fluorogenic dye is that it must have very low fluorescence when mixed with cells. To test this, 10 μM DFAME was incubated with cultured HEK293T cells and the fluorescence intensity of the DFAME-incubated cells was measured. […] Although the background fluorescence in cells induced by DFAME (n=48 cells) was higher than DFHO (n=47 cells) or DFHBI-1T (n=44 cells), it was reasoned that DFAME could be used if enough fluorogenic aptamer is used in cells. Data were collected from three independent cell cultures. Values are means±s.d. FIG. 31B is a graph showing the cytotoxicity of DFAME. To apply a fluorogenic dye in cells, it is critical that this dye has minimal cytotoxicity. To test the cytotoxicity of DFAME, HEK293T cells were first incubated with 10 μM DFAME, then illuminated for 10 minutes using a Nikon Intensilight C-HGFIE 130 W mercury lamp with the TRITC filter set. Control cells were illuminated under identical conditions either with 0.2% DMSO (illuminated with the TRITC filter set) or 10 μM malachite green (illuminated with the Cy5 filter set). […] MTT absorbance readings were performed at 550 nm with 650 nm absorbance used for background subtraction. […]

[5] = Photophysical properties of DFAME, DFHO and RNA complexes (Beetroot study); assay type: physicochemical
Excerpt: dsDNA encoding the top-performing RNA sequences from the brightest bacterial colonies was PCR amplified from the purified plasmids. PCR products were subjected to gel electrophoresis in 2% TBE gel, and the PCR product band corresponding to the correct size was excised from gel and further purified with PCR purification columns (Qiagen) and in vitro transcribed using an AmpliScribe T7-Flash Transcription Kit (Epicenter). The resulting RNA was then purified using Zymo RNA concentrator columns and quantified by absorbance using a Thermo Scientific NanoDrop 2000 spectrophotometer. For absorption, excitation and emission spectra measurements, “excess RNA” conditions and limiting amount of fluorophore was used to ensure that no free fluorophore contributes to the absorbance or fluorescence signal. The RNA concentration used for fluorescence and absorbance measurements was 20 μM and 50 μM, respectively, while the dye concentration was 2 μM and 5 μM, respectively. All in vitro RNA properties were measured in 40 mM HEPES pH 7.4, 100 mM KCl, 5 mM MgCl2 buffer, unless specified.
Extinction coefficient was calculated based on Beer's law. Briefly, absorbance spectrum of 5 μM DFAME, Beetroot-DFAME, or Corn-DFAME was measured using a Thermo Scientific NanoDrop 2000 spectrophotometer with cuvette capability. Extinction coefficient was calculated by dividing peak absorbance value by the concentration of fluorophore alone, or RNA-fluorophore complex.
Quantum yield was determined by comparing the integral of the emission spectra for DFAME or RNA-DFAME complex with the corresponding integral obtained from Rhodamine B solution. These integral values were plotted against the absorbance values corresponding to the excitation wavelength. The slopes from the above plots were calculated for determining quantum yield. Quantum yield was calculated by multiplying the quantum yield of Rhodamine B by the slope of DFAME or RNA-DFAME complex, then divided by the slope of Rhodamine B.

In the case of NC1(C(=O)O)CCCC1 [cycloleucine], the “SAM levels after cycloleucine” value [1] is reported as “rapid drop of cellular SAM levels; also recorded: markedly depleted”, the “SAM levels after cycloleucine” value [2] is reported as “marked drop in SAM” and the “Sensor signal (SAM level) after cycloleucine” value [3] is reported as “rapid decrease in fluorescence; also recorded: markedly reduced”.
For COC(=O)/C=C/C1=NC(=C\c2cc(F)c(O)c(F)c2)/C(=O)N1C [DFAME, methyl 3-((Z)-4-(3,5-difluoro-4-hydroxybenzylidene)-1-methyl-5-oxo-4,5-dihydro-1H-imidazol-2-yl)acrylate], the Cytotoxicity [4] was “low cytotoxicity”, the Emission maximum [5] was 641 nm and the Excitation maximum [5] was 508 nm. For the same compound, the Fluorescence in solution ([5]; 10 μM) was “very low red fluorescence”, the Extinction coefficient ([5]; DFAME alone, at 514 nm, pH 7.4 buffer) was 32,500 M^−1cm^−1 and the “Brightness (extinction coefficient × quantum yield)” value ([5]; relative to Corn-DFHO) was 1.3. It also gave a Fluorescence quantum yield ([5]; versus Rhodamine B) of 0.0029.

— patent publication US20250043290A1, “RNA SEQUENCES THAT INDUCE FLUORESCENCE OF SMALL MOLECULE FLUOROPHORES, MOLECULAR COMPLEXES, SENSORS, AND METHODS OF USE THEREOF” (CORNELL UNIVERSITY, priority 2021, published 2025)
